Data: US6114127A, “Methods of screening for agonists and antagonists of the HDPXU17 receptor” (SmithKline Beecham Corporation, priority 1998, dated 2000)
“Also recorded” adds a separate entry of the source.

Experiments:
[1] = molecular target: T1, HDPXU17 receptor (P2Y-like receptor) (Homo sapiens, UniProt Q96G91); assay: Gs reporter gene luciferase assay, HEK 293 cells stably expressing the luciferase reporter, transfected with HDPXU17 DNA; format: cell-based; details: for luciferase activity: concentration ranges from 3-300,000 nM, HDPXU17-transfected HEK 293 reporter cells, result in words; for EC50: luciferase activity, HEK 293 MREIIVIPII reporter cells transfected with HDPXU17, 3-300,000 nM
T1 construct: expressed in transfected cells; host or cells: HEK 293 cells stably expressing the MREIIVIPII luciferase reporter gene, transiently transfected with pCDN-HDPXU17 DNA (Lipofectamine)
T1 sequence (Q96G91 1-374): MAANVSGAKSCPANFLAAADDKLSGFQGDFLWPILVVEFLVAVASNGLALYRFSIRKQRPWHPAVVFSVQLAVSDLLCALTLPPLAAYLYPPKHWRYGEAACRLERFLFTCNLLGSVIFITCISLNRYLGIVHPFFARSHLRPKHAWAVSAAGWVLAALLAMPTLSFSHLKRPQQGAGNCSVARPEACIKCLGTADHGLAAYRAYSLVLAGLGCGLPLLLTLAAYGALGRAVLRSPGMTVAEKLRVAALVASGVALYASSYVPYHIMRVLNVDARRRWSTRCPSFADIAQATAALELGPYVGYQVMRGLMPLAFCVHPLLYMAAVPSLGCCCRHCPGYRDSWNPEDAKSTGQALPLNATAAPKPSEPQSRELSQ
Description: (§1) The Gs reporter gene luciferase assay for orphan G-protein coupled receptors has been developed using a recombinant construct MREIVIPII plasmid, which has been disclosed European Patent Application No. 0 863 214, published on Sep. 9, 1998. This assay utilizes a luciferase gene fused to three copies of multiple response elements (MREs), one copy of cAMP response element (CRE) and the basal promoter of the vasointestinal peptide (VIP) gene to specifically monitor protein kinase A activation that results from an increase in intracellular cAMP. The system is not sensitive to activation of protein kinase C pathways. Rather, it responds to increases in cAMP mediated by endogenous and recombinant Gs-coupled GPCR activation with up to 120-fold increases in luciferase activity.
(§2) The assay begins when HEK 293 cells stably expressing the MREIIVIPII luciferase reporter gene were seeded at 4,500,000 per flask and incubated overnight at 37° C. The next day, solutions A (4 ug of pCDN-HDPXU17DNA was added to 0.8 ml EMEM without serum) and B (23.1 ul Lipofectamine was mixed in 0.8 ml EMEM without serum) were prepared, mixed together and incubated 30 min at room temperature. During the incubation, the culture medium was aspirated from cells and replaced with 12.5 ml serum-free EMEM. Next, the DNA and Lipofectamine mixture was added to the cells and incubated at 37° C. for 6 hours. After 6 hours, 13 ml of EMEM containing 10% FBS was added to the cells and incubated overnight at 37° C. The next day, the 96-well plates were pretreated with 1× Matrixgel solution at 50 ul/well for one hour. Then, the matrixgel solution and plate cells were aspirated at 2000-4000 cells/well. After overnight incubation at 37° C., 5-20 ul /well of the test compounds were added to the 96-well plates and incubated at 37° C. After 6 hours, the medium of each well was aspirated, 25 ul of 1×PBS without calcium and magnesium was added, the plates were frozen at -70° C. Then, the plates were allowed to thaw. Luc-lite solution (25 ul/well) was added and luciferase activity was measured by TopCount HTS.
In stable HDPXU17-expressing 293 cells(clone 20#) cells transiently transfected with MREIIVIPII plasmid, similar results are obtained.

[2] = molecular target: T1, HDPXU17 receptor (P2Y-like receptor); assay: Gs reporter gene luciferase assay, stable HDPXU17-expressing 293 cells (clone 20#) transiently transfected with MREIIVIPII plasmid; format: cell-based; details: for EC50: luciferase activity, stable HDPXU17-expressing 293 cells (clone 20#) transiently transfected with MREIIVIPII plasmid
Description: as §1
as §2, with “HTS. […]” for “HTS.”

Compound | luciferase activity [1] | best ligand for HDPXU 17 receptor ([1]; based on results in both transient and stable HDPXU17 cells) | EC50 [1] [µM] | EC50 [2] [µM] | luciferase activity ([2]; stable HDPXU17-expressing 293 cells (clone 20#), result in words)
Nc1ccn([C@H]2C[C@H](O)[C@@H](COP(=O)(O)OP(=O)(O)OP(=O)(O)O)O2)c(=O)n1 [dCTP] | no effect on luciferase activity | – | – | – | –
Cc1cn([C@H]2C[C@H](O)[C@@H](COP(=O)(O)OP(=O)(O)OP(=O)(O)O)O2)c(=O)[nH]c1=O [dTTP] | no effect on luciferase activity | – | – | – | –
Nc1ncnc2c1ncn2[C@H]1C[C@H](O)[C@@H](COP(=O)(O)OP(=O)(O)OP(=O)(O)O)O1 [dATP, deoxyadenosine triphosphate] | increase luciferase activity only in cells transfected with the HDPXU17 receptor | appears to be the best ligand for HDPXU 17 receptor | 17.3 | 4.05 | –
Nc1ncnc2c1ncn2[C@H]1C[C@H](O)[C@@H](COP(=O)(O)O)O1 [dAMP, deoxyadenosine monophosphate] | increase luciferase activity only in cells transfected with the HDPXU17 receptor | – | 105 | 200 | –
Nc1nc2c(ncn2[C@H]2C[C@H](O)[C@@H](COP(=O)(O)OP(=O)(O)OP(=O)(O)O)O2)c(=O)[nH]1 [dGTP] | no effect on luciferase activity | – | – | – | –
O=c1ccn([C@@H]2O[C@H](COP(=O)(O)OP(=O)(O)OP(=O)(O)O)[C@@H](O)[C@H]2O)c(=O)[nH]1 [UTP, uridine triphosphate] | increase luciferase activity only in cells transfected with the HDPXU17 receptor; also recorded: specific, but weak | – | – | – | still weak, but specific
